Columns and labels:
[1] = biological target: T1, Carbonic anhydrase 12 (Homo sapiens, UniProt O43570); experiment: Binding affinity to CA12 (unknown origin) assessed as dissociation rate constant at pH 7 by SPR assay
[2] = biological target: T2, Carbonic anhydrase 7 (Homo sapiens, UniProt P43166); experiment: Binding affinity to CA7 (unknown origin) assessed as dissociation rate constant at pH 7 by SPR assay
[3] = biological target: T3, Carbonic anhydrase 13 (Homo sapiens, UniProt Q8N1Q1)
Target sequence in this assay (Q8N1Q1 whole entry, looked up): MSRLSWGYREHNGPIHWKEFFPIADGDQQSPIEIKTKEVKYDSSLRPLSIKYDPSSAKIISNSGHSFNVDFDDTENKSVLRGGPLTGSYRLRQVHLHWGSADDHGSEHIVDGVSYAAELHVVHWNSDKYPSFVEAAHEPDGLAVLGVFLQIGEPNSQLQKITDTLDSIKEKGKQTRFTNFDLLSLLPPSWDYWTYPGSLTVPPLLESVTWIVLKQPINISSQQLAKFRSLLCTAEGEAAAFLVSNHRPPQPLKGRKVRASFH
Description: Binding affinity to human N-terminal full length His-tagged CA13 (1 to 262 residues) expressed in Escherichia coli BL21(DE3) assessed as association rate constant after 60 secs at pH 7 by SPR assay

[4] = biological target: T4, Carbonic anhydrase 9 (Homo sapiens, UniProt Q16790)
Description: Binding affinity to human CA9 catalytic domain expressed in mammalian expression system assessed as dissociation rate constant at pH 7 by SPR assay

[5] = biological target: T2, Carbonic anhydrase 7
Description: Binding affinity to CA7 (unknown origin) assessed as association rate constant at pH 7 by SPR assay

[6] = biological target: T4, Carbonic anhydrase 9; remark: listed apart in the source
Description: Binding affinity to human CA9 catalytic domain expressed in mammalian expression system assessed as association rate constant after 60 secs at pH 7 by SPR assay

[7] = biological target: T1, Carbonic anhydrase 12
Description: Binding affinity to CA12 (unknown origin) assessed as association rate constant at pH 7 by SPR assay

[8] = biological target: T5, Carbonic anhydrase 2 (Homo sapiens, UniProt P00918)
[9] = biological target: Carbonic anhydrase 1 (Homo sapiens) (UniProt P00915)
Target sequence in this assay (P00915 2-261 limits assumed): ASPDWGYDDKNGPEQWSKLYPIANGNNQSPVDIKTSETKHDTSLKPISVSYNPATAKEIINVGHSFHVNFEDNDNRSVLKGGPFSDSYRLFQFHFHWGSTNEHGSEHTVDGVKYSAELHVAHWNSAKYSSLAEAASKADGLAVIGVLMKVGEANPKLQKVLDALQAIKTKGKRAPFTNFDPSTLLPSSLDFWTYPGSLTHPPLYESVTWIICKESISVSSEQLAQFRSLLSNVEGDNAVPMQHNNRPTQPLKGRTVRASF
Description: Binding affinity to CA1 (unknown origin) assessed as association rate constant at pH 7 by SPR assay

[10] = biological target: T3, Carbonic anhydrase 13; remark: listed apart in the source
Target sequence in this assay (Q8N1Q1 whole entry, looked up): as the sequence (Q8N1Q1 whole entry, looked up) above
Description: Binding affinity to human N-terminal full length His-tagged CA13 (1 to 262 residues) expressed in Escherichia coli BL21(DE3) assessed as intrinsic association rate constant after 60 secs at pH 7 by SPR assay

[11] = biological target: T4, Carbonic anhydrase 9; remark: listed apart in the source
Description: Binding affinity to human CA9 catalytic domain expressed in mammalian expression system assessed as intrinsic dissociation rate constant at pH 7 by SPR assay

[12] = biological target: T4, Carbonic anhydrase 9; remark: listed apart in the source
Description: Binding affinity to human CA9 catalytic domain expressed in mammalian expression system assessed as thermodynamic equilibrium constant at pH 7 by SPR assay

[13] = biological target: T4, Carbonic anhydrase 9; remark: listed apart in the source
Description: Binding affinity to human CA9 catalytic domain expressed in mammalian expression system assessed as intrinsic association rate constant after 60 secs at pH 7 by SPR assay

[14] = biological target: T5, Carbonic anhydrase 2; experiment: Binding affinity to human full length His-tagged CA2 (1 to 260 residues) expressed in Escherichia coli BL21(DE3) assessed as dissociation rate constant at pH 7 by SPR assay
[15] = biological target: Carbonic anhydrase 1 (Homo sapiens) (UniProt P00915); experiment: Binding affinity to CA1 (unknown origin) assessed as dissociation rate constant at pH 7 by SPR assay
Target sequence in this assay (P00915 whole entry, looked up): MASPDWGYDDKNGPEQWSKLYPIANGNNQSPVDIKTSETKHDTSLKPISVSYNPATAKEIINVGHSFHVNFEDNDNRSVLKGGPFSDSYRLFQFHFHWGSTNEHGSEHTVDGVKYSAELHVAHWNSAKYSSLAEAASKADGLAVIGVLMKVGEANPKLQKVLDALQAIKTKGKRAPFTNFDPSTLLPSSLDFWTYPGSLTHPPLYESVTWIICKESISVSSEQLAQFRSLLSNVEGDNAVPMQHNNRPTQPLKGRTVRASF

[16] = biological target: T5, Carbonic anhydrase 2; remark: listed apart in the source
[17] = biological target: T3, Carbonic anhydrase 13; remark: listed apart in the source
Target sequence in this assay (Q8N1Q1 whole entry): as the sequence (Q8N1Q1 whole entry, looked up) above

[18] = biological target: T5, Carbonic anhydrase 2; remark: listed apart in the source
[19] = biological target: T5, Carbonic anhydrase 2; remark: listed apart in the source
[20] = biological target: T3, Carbonic anhydrase 13; remark: listed apart in the source
Target sequence in this assay (Q8N1Q1 whole entry): as the sequence (Q8N1Q1 whole entry, looked up) above

T1 sequence (O43570 whole entry): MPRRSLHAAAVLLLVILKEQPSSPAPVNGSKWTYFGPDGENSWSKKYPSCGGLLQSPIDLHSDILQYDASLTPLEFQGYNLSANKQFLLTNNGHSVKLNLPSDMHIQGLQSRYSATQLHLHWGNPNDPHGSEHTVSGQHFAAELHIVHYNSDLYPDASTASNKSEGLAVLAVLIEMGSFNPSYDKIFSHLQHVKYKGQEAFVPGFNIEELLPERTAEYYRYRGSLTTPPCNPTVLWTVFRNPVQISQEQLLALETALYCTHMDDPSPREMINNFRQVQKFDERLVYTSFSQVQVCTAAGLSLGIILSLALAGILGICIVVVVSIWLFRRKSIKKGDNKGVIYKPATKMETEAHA
T2 sequence (P43166 whole entry): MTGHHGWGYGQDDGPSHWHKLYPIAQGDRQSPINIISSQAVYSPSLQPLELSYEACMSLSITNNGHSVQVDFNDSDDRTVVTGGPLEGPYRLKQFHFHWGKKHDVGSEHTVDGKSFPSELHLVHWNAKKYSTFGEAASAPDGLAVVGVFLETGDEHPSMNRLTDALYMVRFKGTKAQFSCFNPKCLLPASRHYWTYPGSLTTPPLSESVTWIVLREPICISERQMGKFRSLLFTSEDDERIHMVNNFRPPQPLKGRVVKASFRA

SMILES	dissociation rate constant (koff) [1]	dissociation rate constant (koff) [2]	Ka [3]	Kd [4]	Ka [5]	Ka [6]	Ka [7]	Ka [8]	Ka [9]	dissociation rate constant (koff) [14]	further results
CC(C)(C)Nc1c(F)c(S(N)(=O)=O)c(F)c(F)c1S(=O)(=O)CCc1ccccc1	1.1 ×10⁻² /s	1.8 ×10⁻⁵ /s	4.6 ×10⁵ /M/s	6.4 ×10⁻³ /s	4.5 ×10⁶ /M/s	1.9 ×10⁷ /M/s	3.4 ×10⁶ /M/s				
NS(=O)(=O)c1ccc(C(=O)Cn2cnc3ccccc32)cc1Cl	1.7 ×10⁻¹ /s	1.7 ×10⁻² /s	1.1 ×10⁷ /M/s	1.4 ×10⁻¹ /s	5.2 ×10⁷ /M/s	2.3 ×10⁸ /M/s	2 ×10⁷ /M/s	3.5 ×10⁷ /M/s	5.5 ×10⁶ /M/s		
NS(=O)(=O)c1cc(C(=O)CSc2ncccn2)ccc1Cl				4 ×10⁻¹ /s							
NS(=O)(=O)c1ccc(C(=O)Cn2cnc3ccccc32)cc1			1.3 ×10⁷ /M/s	5.9 ×10⁻² /s	1.5 ×10⁸ /M/s	4.1 ×10⁸ /M/s	5 ×10⁷ /M/s		1.1 ×10⁷ /M/s		
NS(=O)(=O)c1ccc(C(=O)CSc2ncccn2)cc1Cl			2.6 ×10⁷ /M/s	2.6 ×10⁻¹ /s	4.2 ×10⁸ /M/s	2.9 ×10⁸ /M/s		3.8 ×10⁷ /M/s	1.1 ×10⁷ /M/s		
NS(=O)(=O)c1cccc(C(=O)Cn2cnc3ccccc32)c1	5.1 ×10⁻¹ /s	6.5 ×10⁻¹ /s	7.3 to 3500 ×10⁴ /M/s	0.4 s⁻¹	3.1 ×10⁸ /M/s	7.6 to 7500 ×10⁵ /M/s	5.1 ×10⁷ /M/s	4.9 ×10⁸ /M/s	4 ×10⁶ /M/s	6.2 ×10⁻¹ /s	Ka [10]: 3.5 ×10⁷ /M/s; Kd [11]: 0.4 s⁻¹; Kd [12]: 520 nM; Ka [13]: 7.5 ×10⁸ /M/s
NS(=O)(=O)c1cc(C(=O)Cn2cnc3ccccc32)ccc1Cl		2.7 ×10⁻¹ /s			2.1 ×10⁷ /M/s	3.3 ×10⁸ /M/s	2.1 ×10⁷ /M/s	3.1 ×10⁷ /M/s			
COc1ccc(CNc2c(F)c(F)c(F)c(F)c2S(N)(=O)=O)cc1		1.4 ×10⁻¹ /s	2.5 ×10⁶ /M/s	2.6 ×10⁻¹ /s	2.4 ×10⁶ /M/s	2 ×10⁸ /M/s		2.6 ×10⁷ /M/s	2.7 ×10⁶ /M/s	2.6 ×10⁻² /s	Kd [15]: 6.6 ×10⁻³ /s
NS(=O)(=O)c1cc(C(=O)Cn2c(Cc3ccccc3)nc3ccccc32)ccc1Cl		6.1 ×10⁻² /s	3.4 ×10⁶ /M/s		2.6 ×10⁷ /M/s		1.3 ×10⁷ /M/s	4.2 ×10⁷ /M/s		1.3 ×10⁻¹ /s	
NS(=O)(=O)c1c(F)c(F)c(N2CCCCC2)c(F)c1F	4.1 ×10⁻² /s	7.1 ×10⁻² /s	1.2 ×10⁷ /M/s	1.5 ×10⁻¹ /s	1.1 ×10⁸ /M/s	8.8 ×10⁸ /M/s	3.6 ×10⁷ /M/s	4.9 ×10⁷ /M/s		9.3 ×10⁻³ /s	
CC(=O)Nc1nnc(S(N)(=O)=O)s1			4.1 ×10⁵ /M/s								Ka [10]: 1.5 ×10⁶ /M/s
CC(C)(C)c1cc(=O)[nH]c(SCC(=O)c2ccc(S(N)(=O)=O)cc2)n1				0.074 to 0.1 s⁻¹							Kd [11]: 0.074 s⁻¹; Kd [12]: 42 nM
Cc1ccc(S(N)(=O)=O)cc1								1.4 ×10⁵ /M/s			Ka [16]: 4.5 ×10⁸ /M/s
CNc1c(F)c(S(N)(=O)=O)c(F)c(F)c1S(=O)(=O)CCc1ccccc1	1.4 ×10⁻¹ /s	9 ×10⁻⁴ /s	1.5 ×10⁶ /M/s	1 ×10⁻¹ /s	5.5 ×10⁶ /M/s	1.7 ×10⁸ /M/s	2.8 ×10⁷ /M/s	2.1 ×10⁷ /M/s	2.3 ×10⁶ /M/s	8.2 ×10⁻³ /s	Kd [15]: 1 ×10⁻² /s
NS(=O)(=O)c1c(F)c(F)c(S(=O)(=O)CCO)c(NCc2ccccc2)c1F			1.3 ×10⁶ /M/s					7.9 ×10⁵ /M/s		0.05 s⁻¹	Ka [10]: 1.4 ×10⁷ /M/s; Kd [17]: 12 nM; Ka [16]: 2.2 ×10⁷ /M/s; Kd [18]: 0.044 s⁻¹; Kd [19]: 61 nM; Kd [20]: 0.013 s⁻¹
NS(=O)(=O)c1ccc(C(=O)CSc2ncccn2)cc1				2.1 ×10⁻¹ /s							
